A short description of series [1]: Cytotoxicity against human NCI-H460 cells incubated for 72 hrs by CCK-8 assay. In general terms: Formazan colour is commonly taken as a measure of viable cells.
Series [2] deals with Replicase polyprotein 1ab (Severe acute respiratory syndrome coronavirus 2, UniProt P0DTD1).
Description: Binding affinity to CM5 sensor chip immobilized SARS-CoV-2 3CL protease assessed as dissociation constant by SPR analysis
Series [3] in a line: in vitro. As to conditions: human, NCI-H460 cells.
Description: Selectivity index, ratio of CC50 for cytotoxicity against human NCI-H460 cells to EC50 for antiviral activity against HCoV-OC43 VR-1558 infected in human NCI-H460 cells
Series [4] relates to Human coronavirus OC43. In words: microbe, parasite or virus in culture. Particulars: Betacoronavirus 1, VR-1558, NCI-H460, 72 h.
Description: Antiviral activity against HCoV-OC43 VR-1558 infected in human NCI-H460 cells assessed as inhibition of viral growth incubated for 72 hrs by CCK-8 assay
The subject of series [5] is SARS-CoV-2. The series is described as follows: microbe, parasite or virus in culture. As to conditions: Severe acute respiratory syndrome coronavirus 2, IC19/2020, Vero, 48 h.
Description: Antiviral activity against SARS-CoV-2 IC19/2020 infected in Vero cells assessed as inhibition of viral growth incubated for 48 hrs by plaque assay
Series [6] is described as follows: Cytotoxicity against human Huh7.5 cells.
In series [7] the test system is Human coronavirus OC43. The series is described as follows: microbe, parasite or virus in culture. Particulars: Betacoronavirus 1, A549, 96 h.
Description: Antiviral activity against HCoV-OC43 infected in human A549 cells assessed as inhibition of viral growth incubated for 4 days
The nature of series [8]: Cytotoxicity against human H9 cells.

Each structure is given as a SMILES string.

For `CCOc1ccc(C(=O)Nc2ccc(CN3CC(N(C)C)C3)c(C(F)(F)F)c2)cc1[N+](=O)[O-]`, the CC50 (usually the concentration giving 50% cytotoxicity) at 72 h in series [1] was above 200 µM. In addition, the Kd (usually the free concentration of one partner at which half of the binding sites on the other are occupied at equilibrium, for simple one-to-one binding) in series [2] was 17.1 µM. In series [3], the selectivity ratio was above 108. Further, the half-maximal effective concentration (EC50) (usually the midpoint of the concentration-response curve) in series [4] stood at 1.85 µM.

`O=C(Nc1ccc([N+](=O)[O-])cc1Cl)c1cc(Cl)ccc1O` [NICLOSAMIDE]: in series [5], the EC50 was determined as 0.4 µM.

In series [1], `CN(C)C1CN(Cc2ccc(NC(=O)c3ccc(OCCCl)c([N+](=O)[O-])c3)cc2C(F)(F)F)C1` came in with a CC50 at 72 h of 19.2 µM. In series [6], this compound returned a CC50 of 6.47 µM. Also, the selectivity ratio in series [3] was 6.5. Besides, the EC50 in series [4] is 2.97 µM.

In the case of `Cc1ccc(NC(=O)c2ccc(CN3CCN(C)CC3)cc2)cc1Nc1nc(-c2cccnc2)cs1` [MASITINIB], in series [7], the midpoint of the response, the EC50, lay at 2.1 µM.

As for `COc1ccc(C(=O)Oc2cc(OC)c(OC)c(OC)c2)cc1NC(=O)C(C)Br` (configuration not stated), the midpoint of cytotoxicity in series [8], the CC50, lay at 3.64 µM.

The compound `CN1CCN(Cc2ccc(NC(=O)c3ccc(F)c(C(F)(F)F)c3)cc2C(F)(F)F)CC1` displayed a CC50 at 72 h in series [1] of 14.5 µM. In addition, the selectivity ratio in series [3] amounted to 3. In addition, the EC50 in series [4] came out at 4.15 µM.

In series [1], `CC(C)C(=O)OC[C@H]1O[C@@H](n2ccc(NO)nc2=O)[C@H](O)[C@@H]1O` [MOLNUPIRAVIR] yielded a CC50 at 72 h of 18.3 µM. For the same compound, the selectivity ratio in series [3] turned out to be 102. Also, in series [4], the EC50 turned out to be 0.18 µM.

The values above are taken from ChEMBL document CHEMBL5537137, “Design, synthesis and biological evaluation of biaryl amide derivatives against SARS-CoV-2 with dual-target mechanism” (Eur J Med Chem, 2024).
